Results taken from ChEMBL document CHEMBL1156494, “Stelliferin riboside, a triterpene monosaccharide isolated from the Fijian sponge Geodia globostellifera” (J Nat Prod, 2001).
Converted amounts (≈) assume the structure as drawn.

What was measured:
[1] = test system: A2780; experiment: Cytotoxicity against human A2780 cells; assay type: functional, cell-based
[2] = test system: K562; experiment: Cytotoxicity against human K562 cells; assay type: functional, cell-based

Row | Structure (SMILES) | IC50 [1] [µg/mL] | IC50 [2] [µg/mL]
1 | C\C(=C/C=C/C(C)=C1/C(=O)C[C@H]2[C@@]3(C)CCC(=O)C(C)(C)[C@@H]3CC[C@]12C)c1ccc(C)c(=O)o1 [STELLETIN A] | 1.52 (≈ 3.29 µM) | 3.82 (≈ 8.26 µM)
2 | CC(/C=C/C=C(\C)c1ccc(C)c(=O)o1)=C1/C(=O)C[C@H]2[C@@]3(C)CCC(=O)C(C)(C)[C@@H]3CC[C@]12C [STELLETTIN B] | 0.0051 (≈ 0.011 µM) | 0.93 (≈ 2.01 µM)
3 | CC(=O)O[C@@H]1CC[C@@]2(C)[C@@H](CC[C@]3(C)/C(=C(C)/C=C/C=C(\C)C(CC=C(C)C)O[C@@H]4OC[C@@H](O)[C@@H](O)[C@H]4O)C(=O)C[C@@H]23)C1(C)C (stereo partly specified) [STELLIFERIN RIBOSIDE] | 38.1 (≈ 60.6 µM) | > 50
